This assay has as its system S. aureus ATCC 6538. Description: Synergy of terpinyl alcohols with phenolic compounds in water, 15 seconds contact, plate count log reduction. It counts as cell-based, Staphylococcus aureus. The conditions noted are these: 0.1% alone. The procedure: Liquid actives were used directly. Solid actives were dissolved in alcohol and a 50% stock was made.
The culture was grown overnight in Tryptone soya agar. It was suspended in saline (0.85% NaCl) to a con. of 1.5×10^8-5×10^8 cells/ml
To 9 ml water the actives were added to give the desired concentration. 1 ml of the culture was added and mixed. After 15 seconds contact 1 ml aliquot was removed and added to a neutraliser and kept for 5 minutes. A control of untreated cells was similarly processed. It was then diluted and plated. The plates were incubated at 37° C. for 24 hours. The colonies on the plates were counted. The counts were converted to log10. The log. no. of survivors was determined and log reduction calculated.

Take `CC=Cc1ccccc1O` [2-propenylphenol]: the “Log reduction S. aureus ATCC 6538” value is 1.92.

(Values after patent US9820483B2, “Microbial composition” (Rohm and Haas Company, priority 2011, dated 2017).)
